Source: patent US20260209249A1, “NOVEL TRICYCLIC COMPOUND AS KRAS G12D INHIBITOR, AND USE THEREOF” (SK Biopharmaceuticals Co., priority 2022, published 2026)

Assays:
[1] = target: T1, GDP-KRAS G12D mutant protein (Homo sapiens, UniProt P01116, G12D); test: Differential scanning fluorimetry (DSF) binding affinity to GDP-KRAS G12D mutant protein; conditions: DSF thermal shift, 10 μM compound, 4 μg KRAS protein
T1 construct: purchased Daegu Gyeongbuk Medical Innovation Foundation (DGMIF), made to order
Method: (§1) Test Example 1: Measurement of Binding Affinity to KRAS G12D Mutant Protein The binding affinities of the compounds according to one embodiment of the present application to the KRAS G12D mutant protein were evaluated using differential scanning fluorimetry (DSF). Differential scanning fluorimetry (DSF) is a method used to study the stability of a protein upon binding to a compound. The experiment can be performed using a real-time PCR (RT-PCR) instrument, and is commonly employed as a screening technique for small-molecule compounds targeting specific proteins. As the temperature increases, folded proteins begin to unfold, during which a hydrophobic dye such as SYPRO Orange binds to the exposed hydrophobic regions of the protein, resulting in a measurable increase in fluorescence intensity (maximum absorption at 470 nm and maximum emission at 570 nm). Protein-compound binding is determined by the difference in the melting temperature (Tm) of the protein in the presence of the compound compared to the Tm in the absence of the compound, expressed as ΔTm. The binding affinity to the KRAS G12D mutant protein was measured using the Protein Thermal Shift Dye kit (#4461146, Applied Biosystems). The GDP-KRAS G12D mutant protein and GppNHp-KRAS G12D mutant protein used in the experiment were recombinant proteins synthesized by the Daegu Gyeongbuk Medical Innovation Foundation (DGMIF) upon request. The analysis of binding between the compound and the KRAS G12D mutant protein was performed according to the following reaction recipe: each test sample contained 4 μg of KRAS protein, 10 μM of the compound, and 2×SYPRO Orange dye. For the GDP-KRAS G12D protein samples, the buffer provided with the Protein Thermal Shift Dye kit was used, while for the GppNHp-KRAS G12D protein samples, 50 mM HEPES (pH 7.5) buffer was used. For the protein-compound binding reaction, the compound was added to the KRAS G12D mutant protein and reacted at room temperature for 30 minutes, followed by the addition of 2×SYPRO Orange dye. The temperature was increased to 25° C.-99° C. (0.05° C./s) using QuantStudiol RT-PCR instrument (Applied Biosystems), and fluorescence was measured using a ROX reporter with filters of 580±10 nm (excitation)/623±14 nm (emission). The measurements obtained at a compound concentration of 10 μM were analyzed using the Protein Thermal Shift Software program (version v1.4, Thermo Fisher Scientific), and the ΔTm (° C.) values, which indicate the binding affinity of the compound to the KRAS G12D mutant protein, were calculated. The DSF measurement results for the compounds according to one embodiment of the present application with respect to the KRAS G12D mutant protein are shown in Table 2.

[2] = target: T2, GppNHp-KRAS G12D mutant protein (Homo sapiens, UniProt P01116, G12D); test: Differential scanning fluorimetry (DSF) binding affinity to GppNHp-KRAS G12D mutant protein; conditions: DSF thermal shift, 10 μM compound, 4 μg KRAS protein, 50 mM HEPES (pH 7.5)
T2 construct: purchased Daegu Gyeongbuk Medical Innovation Foundation (DGMIF), made to order
Method: as §1

Cc1cc2c(o1)c(-c1nc(N)cc(C)c1C(F)(F)F)c(F)c1nc(OC[C@@]34CCCN3C[C@H](F)C4)nc(N3C[C@H]4CC[C@@H](C3)N4)c12 [Example 60, 6-(1-((1R,5S)-3,8-diazabicyclo[3.2.1]octan-3-yl)-5-fluoro-3-(((2R,7aS)-2-fluorotetrahydro-1H-pyrrolizin-7a(5H)-yl)methoxy)-8-methylfuro[3,2-n]quinazolin-6-yl)-4-methyl-5-(trifluoromethyl)pyridin-2-amine]
GDP-KRAS G12D (ΔTmD, ° C.) [1]: 0.87 °C | GppNHp-KRAS G12D (ΔTmD, ° C.) [2]: 1.61 °C

Cc1cc2[nH]ncc2c(-c2cc3nc(OC[C@@]45CCCN4C[C@H](F)C5)nc(N4C[C@H]5CC[C@@H](C4)N5)c3n3ccnc23)c1C(F)(F)F [Example 26, 1-((1 R,5S)-3,8-diazabicyclo[3.2.1]octan-3-yl)-3-(((2R,7aS)-2-fluorotetrahydro-1H-pyrrolizin-7a(5H)-yl)methoxy)-6-(6-methyl-5-(trifluoromethyl)-1H-indazol-4-yl)imidazo[1′,2′:1,6]pyrido[3,2-d]pyrimidine]
GDP-KRAS G12D (ΔTmD, ° C.) [1]: 4.12 °C | GppNHp-KRAS G12D (ΔTmD, ° C.) [2]: 1.01 °C

C#Cc1c(F)ccc2cccc(-c3cc4nc(OC[C@@]56CCCN5C/C(=C\F)C6)nc(N5C[C@H]6CC[C@@H](C5)N6)c4n4ccnc34)c12 [Example 27, 1-((1 R,5S)-3,8-diazabicyclo[3.2.1]octan-3-yl)-6-(8-ethynyl-7-fluoronaphthalen-1-yl)-3-(((S,Z)-2-(fluoromethylene)tetrahydro-1H-pyrrolizin-7a(5H)-yl)methoxy)imidazo[1′,2′:1,6]pyrido[3,2-d]pyrimidine]
GDP-KRAS G12D (ΔTmD, ° C.) [1]: 4.27 °C | GppNHp-KRAS G12D (ΔTmD, ° C.) [2]: 0.71 °C

Cc1cc2c(o1)c(-c1cccc3sc(N)nc13)c(F)c1nc(OC[C@@]34CCCN3C[C@H](F)C4)nc(N3CC4CCC(C3)N4)c12 [Example 54, 4-(1-((1R,5S)-3,8-diazabicyclo[3.2.1]octan-3-yl)-5-fluoro-3-(((2R,7aS)-2-fluorotetrahydro-1H-pyrrolizin-7a(5H)-yl)methoxy)-8-methylfuro[3,2-n]quinazolin-6-yl)benzo[d]thiazol-2-amine]
GDP-KRAS G12D (ΔTmD, ° C.) [1]: 2.95 °C | GppNHp-KRAS G12D (ΔTmD, ° C.) [2]: 1.61 °C

Nc1c(F)c(F)c(F)c(-c2cc3nc(OC[C@@]45CCCN4C[C@H](F)C5)nc(N4C[C@H]5CC[C@@H](C4)N5)c3n3ccnc23)c1F [Example 13, 3-(1-((1R,5S)-3,8-diazabicyclo[3.2.1]octan-3-yl)-3-(((2R,7aS)-2-fluorotetrahydro-1H-pyrrolizin-7a(51H)-yl)methoxy)imidazo[1′,2′:1,6]pyrido[3,2-d]pyrimidin-6-yl)-2,4,5,6-tetrafluoroaniline]
GDP-KRAS G12D (ΔTmD, ° C.) [1]: 0.28 °C | GppNHp-KRAS G12D (ΔTmD, ° C.) [2]: −0.61 °C

CCc1c(F)ccc2cc(O)cc(-c3cc4nc(OC[C@@]56CCCN5CC(=C(F)F)C6)nc(N5C[C@H]6CC[C@@H](C5)N6)c4n4ccnc34)c12 [Example 109, 4-(1-((1 R,5S)-3,8-diazabicyclo[3.2.1]octan-3-yl)-3-(((S)-2-(difluoromethylene)tetrahydro-1H-pyrrolizin-7a(5H)-yl)methoxy)imidazo[1′,2′:1,6]pyrido[3,2-d]pyrimidin-6-yl)-5-ethyl-6-fluoronaphthalen-2-ol]
GDP-KRAS G12D (ΔTmD, ° C.) [1]: 10.51 °C | GppNHp-KRAS G12D (ΔTmD, ° C.) [2]: 4.28 °C

C#Cc1c(F)ccc2cc(N)cc(-c3cc4nc(OC[C@@]56CCCN5CC(=C(F)F)C6)nc(N5[C@@H]6CC[C@H]5CNC6)c4n4ccnc34)c12 [Example 108, 4-(1-((1 R,5S)-3,8-diazabicyclo[3.2.1]octan-8-yl)-3-(((S)-2-(difluoromethylene)tetrahydro-1H-pyrrolizin-7a(5H)-yl)methoxy)imidazo[1′,2′:1,6]pyrido[3,2-d]pyrimidin-6-yl)-5-ethynyl-6-fluoronaphthalen-2-amine]
GDP-KRAS G12D (ΔTmD, ° C.) [1]: 8.47 °C | GppNHp-KRAS G12D (ΔTmD, ° C.) [2]: 5.36 °C
